Measurements published in PubChem BioAssay AID1919017 (Molecular Pharmacology Branch, DTP, NCI, 2023).

System: SW1271 complex spheroids with HUVEC/MSC, growth, % test/control
Test: Anticancer human tumor SW1271 cell line growth inhibition [AhR];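 also: spheroids exposed to agents for 7 days before readout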
Conditions: for IC50: curve of first compound; for viability, T/C: stronger effect = lower value
Summary of the method: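 Spheroids combined tumor cells with HUVEC endothelial cells and human MSCs as stroma. AhR antagonists were paired with standard or investigational drugs, each dosed in half-log steps down from near clinical Cmax, or from 10 microM where Cmax was unknown.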

[1] = second compound 0.1 µM, first compound 0.0316 µM
[2] = second compound 0.1 µM, first compound 0.1 µM
[3] = second compound 0.1 µM, first compound 0.316 µM
[4] = second compound 0.1 µM, first compound 1 µM
[5] = second compound 0.1 µM, first compound 3.16 µM
[6] = second compound 0.1 µM, first compound 10 µM
[7] = second compound 0.316 µM, first compound 0.0316 µM
[8] = second compound 0.316 µM, first compound 0.1 µM
[9] = second compound 0.316 µM, first compound 0.316 µM
[10] = second compound 0.316 µM, first compound 1 µM
[11] = second compound 0.316 µM, first compound 3.16 µM
[12] = second compound 0.316 µM, first compound 10 µM
[13] = second compound 1 µM, first compound 0.0316 µM
[14] = second compound 1 µM, first compound 0.1 µM
[15] = second compound 1 µM, first compound 0.316 µM
[16] = second compound 1 µM, first compound 1 µM
[17] = second compound 1 µM, first compound 3.16 µM
[18] = second compound 1 µM, first compound 10 µM
[19] = second compound 3.16 µM, first compound 0.0316 µM
[20] = second compound 3.16 µM, first compound 0.1 µM
[21] = second compound 3.16 µM, first compound 0.316 µM
[22] = second compound 3.16 µM, first compound 1 µM
[23] = second compound 3.16 µM, first compound 3.16 µM
[24] = second compound 3.16 µM, first compound 10 µM
[25] = second compound 10 µM, first compound 0.0316 µM
[26] = second compound 10 µM, first compound 0.1 µM
[27] = second compound 10 µM, first compound 0.316 µM
[28] = second compound 10 µM, first compound 1 µM
[29] = second compound 10 µM, first compound 3.16 µM
[30] = second compound 10 µM, first compound 10 µM

Structure (SMILES): CC(C)c1c(-c2ccccc2)nc2c(C#N)c[nH]n2c1=O + Cc1ccccc1N=Nc1ccc(NC(=O)c2ccnn2C)c(C)c1
- IC50 (second compound 0.1 µM): > 10000 nM
- IC50 (second compound 0.316 µM): > 10000 nM
- IC50 (second compound 1 µM): > 10000 nM
- IC50 (second compound 3.16 µM): > 10000 nM
- IC50 (second compound 10 µM): > 10000 nM
- viability, T/C [1]: 99.6%
- viability, T/C [2]: 85.9%
- viability, T/C [3]: 94.9%
- viability, T/C [4]: 78%
- viability, T/C [5]: 102%
- viability, T/C [6]: 102%
- viability, T/C [7]: 102%
- viability, T/C [8]: 110%
- viability, T/C [9]: 112%
- viability, T/C [10]: 107%
- viability, T/C [11]: 85.3%
- viability, T/C [12]: 77.3%
- viability, T/C [13]: 90.5%
- viability, T/C [14]: 97.6%
- viability, T/C [15]: 91%
- viability, T/C [16]: 113%
- viability, T/C [17]: 107%
- viability, T/C [18]: 94.4%
- viability, T/C [19]: 93.3%
- viability, T/C [20]: 88.3%
- viability, T/C [21]: 130%
- viability, T/C [22]: 109%
- viability, T/C [23]: 119%
- viability, T/C [24]: 101%
- viability, T/C [25]: 76.5%
- viability, T/C [26]: 88.5%
- viability, T/C [27]: 108%
- viability, T/C [28]: 113%
- viability, T/C [29]: 88.2%
- viability, T/C [30]: 87.6%

Structure (SMILES): CC1COCCN1c1cc(-c2ccnn2C)c2ccnc(-c3ccn[nH]3)c2n1 (stereo not given) + Cc1ccccc1N=Nc1ccc(NC(=O)c2ccnn2C)c(C)c1
- IC50 (second compound 0.1 µM): 683 nM
- IC50 (second compound 0.316 µM): > 1000 nM
- IC50 (second compound 1 µM): > 1000 nM
- IC50 (second compound 3.16 µM): > 1000 nM
- IC50 (second compound 10 µM): > 1000 nM
- viability, T/C (second compound 0.1 µM, first compound 0.00316 µM): 98.9%
- viability, T/C (second compound 0.1 µM, first compound 0.01 µM): 97.4%
- viability, T/C [1]: 88.5%
- viability, T/C [2]: 72.7%
- viability, T/C [3]: 61.6%
- viability, T/C [4]: 44.6%
- viability, T/C (second compound 0.316 µM, first compound 0.00316 µM): 102%
- viability, T/C (second compound 0.316 µM, first compound 0.01 µM): 126%
- viability, T/C [7]: 92.7%
- viability, T/C [8]: 81.2%
- viability, T/C [9]: 74.8%
- viability, T/C [10]: 49.2%
- viability, T/C (second compound 1 µM, first compound 0.00316 µM): 112%
- viability, T/C (second compound 1 µM, first compound 0.01 µM): 96.9%
- viability, T/C [13]: 106%
- viability, T/C [14]: 83.6%
- viability, T/C [15]: 85.3%
- viability, T/C [16]: 49.6%
- viability, T/C (second compound 3.16 µM, first compound 0.00316 µM): 100%
- viability, T/C (second compound 3.16 µM, first compound 0.01 µM): 102%
- viability, T/C [19]: 85.8%
- viability, T/C [20]: 57%
- viability, T/C [21]: 63.5%
- viability, T/C [22]: 63%
- viability, T/C (second compound 10 µM, first compound 0.00316 µM): 93.3%
- viability, T/C (second compound 10 µM, first compound 0.01 µM): 95%
- viability, T/C [25]: 99.9%
- viability, T/C [26]: 72.3%
- viability, T/C [27]: 55.1%
- viability, T/C [28]: 58.2%

Structure (SMILES): CC1COCCN1c1cc(C2(S(C)(=N)=O)CC2)nc(-c2ccnc3[nH]ccc23)n1 (stereo not given) + Cc1ccccc1N=Nc1ccc(NC(=O)c2ccnn2C)c(C)c1
- IC50 (second compound 0.1 µM): > 10000 nM
- IC50 (second compound 0.316 µM): > 10000 nM
- IC50 (second compound 1 µM): > 10000 nM
- IC50 (second compound 3.16 µM): > 10000 nM
- IC50 (second compound 10 µM): > 10000 nM
- viability, T/C [1]: 87.6%
- viability, T/C [2]: 105%
- viability, T/C [3]: 90.8%
- viability, T/C [4]: 119%
- viability, T/C [5]: 89.4%
- viability, T/C [6]: 52.5%
- viability, T/C [7]: 100%
- viability, T/C [8]: 95.2%
- viability, T/C [9]: 96.9%
- viability, T/C [10]: 106%
- viability, T/C [11]: 67.6%
- viability, T/C [12]: 58.8%
- viability, T/C [13]: 96.8%
- viability, T/C [14]: 111%
- viability, T/C [15]: 106%
- viability, T/C [16]: 89.6%
- viability, T/C [17]: 90.4%
- viability, T/C [18]: 56.7%
- viability, T/C [19]: 97.5%
- viability, T/C [20]: 112%
- viability, T/C [21]: 104%
- viability, T/C [22]: 96.7%
- viability, T/C [23]: 70%
- viability, T/C [24]: 61.1%
- viability, T/C [25]: 102%
- viability, T/C [26]: 91.8%
- viability, T/C [27]: 104%
- viability, T/C [28]: 95.4%
- viability, T/C [29]: 68.1%
- viability, T/C [30]: 54.9%

Structure (SMILES): COc1ccc([C@@H](O)c2cc(-c3ncnc4cc(N5CCOCC5)ccc34)c(F)cc2Cl)nn1 + Cc1ccccc1N=Nc1ccc(NC(=O)c2ccnn2C)c(C)c1
- IC50 (second compound 0.1 µM): 2220 nM
- IC50 (second compound 0.316 µM): 2550 nM
- IC50 (second compound 1 µM): 5040 nM
- IC50 (second compound 3.16 µM): 4750 nM
- IC50 (second compound 10 µM): 1980 nM
- viability, T/C [1]: 97.2%
- viability, T/C [2]: 98.1%
- viability, T/C [3]: 87.2%
- viability, T/C [4]: 58.6%
- viability, T/C [5]: 50%
- viability, T/C [6]: 33.9%
- viability, T/C [7]: 82.9%
- viability, T/C [8]: 94.2%
- viability, T/C [9]: 77.6%
- viability, T/C [10]: 65%
- viability, T/C [11]: 47.6%
- viability, T/C [12]: 33.5%
- viability, T/C [13]: 94.6%
- viability, T/C [14]: 89%
- viability, T/C [15]: 86.2%
- viability, T/C [16]: 68.1%
- viability, T/C [17]: 57.9%
- viability, T/C [18]: 40.4%
- viability, T/C [19]: 84.5%
- viability, T/C [20]: 80.5%
- viability, T/C [21]: 70.6%
- viability, T/C [22]: 68.9%
- viability, T/C [23]: 59.2%
- viability, T/C [24]: 36.8%
- viability, T/C [25]: 89.5%
- viability, T/C [26]: 73.5%
- viability, T/C [27]: 77.7%
- viability, T/C [28]: 60.9%
- viability, T/C [29]: 41.2%
- viability, T/C [30]: 37.4%

Structure (SMILES): O=C(C=Cn1cnc(-c2cc(C(F)(F)F)cc(C(F)(F)F)c2)n1)NNc1cnccn1 + Cc1ccccc1N=Nc1ccc(NC(=O)c2ccnn2C)c(C)c1
- IC50 (second compound 0.1 µM): 2020 nM
- IC50 (second compound 0.316 µM): 1390 nM
- IC50 (second compound 1 µM): 2470 nM
- IC50 (second compound 3.16 µM): > 3000 nM
- IC50 (second compound 10 µM): > 3000 nM
- viability, T/C (second compound 0.1 µM, first compound 0.00949 µM): 87%
- viability, T/C (second compound 0.1 µM, first compound 0.03 µM): 111%
- viability, T/C (second compound 0.1 µM, first compound 0.0949 µM): 86.1%
- viability, T/C (second compound 0.1 µM, first compound 0.3 µM): 64.5%
- viability, T/C (second compound 0.1 µM, first compound 0.949 µM): 54.1%
- viability, T/C (second compound 0.1 µM, first compound 3 µM): 46.7%
- viability, T/C (second compound 0.316 µM, first compound 0.00949 µM): 78.9%
- viability, T/C (second compound 0.316 µM, first compound 0.03 µM): 86.2%
- viability, T/C (second compound 0.316 µM, first compound 0.0949 µM): 84%
- viability, T/C (second compound 0.316 µM, first compound 0.3 µM): 64.8%
- viability, T/C (second compound 0.316 µM, first compound 0.949 µM): 56%
- viability, T/C (second compound 0.316 µM, first compound 3 µM): 42.8%
- viability, T/C (second compound 1 µM, first compound 0.00949 µM): 111%
- viability, T/C (second compound 1 µM, first compound 0.03 µM): 85.7%
- viability, T/C (second compound 1 µM, first compound 0.0949 µM): 79%
- viability, T/C (second compound 1 µM, first compound 0.3 µM): 79.2%
- viability, T/C (second compound 1 µM, first compound 0.949 µM): 59.4%
- viability, T/C (second compound 1 µM, first compound 3 µM): 45.8%
- viability, T/C (second compound 3.16 µM, first compound 0.00949 µM): 109%
- viability, T/C (second compound 3.16 µM, first compound 0.03 µM): 95.6%
- viability, T/C (second compound 3.16 µM, first compound 0.0949 µM): 99.7%
- viability, T/C (second compound 3.16 µM, first compound 0.3 µM): 61.4%
- viability, T/C (second compound 3.16 µM, first compound 0.949 µM): 64.9%
- viability, T/C (second compound 3.16 µM, first compound 3 µM): 49%
- viability, T/C (second compound 10 µM, first compound 0.00949 µM): 94.8%
- viability, T/C (second compound 10 µM, first compound 0.03 µM): 93%
- viability, T/C (second compound 10 µM, first compound 0.0949 µM): 107%
- viability, T/C (second compound 10 µM, first compound 0.3 µM): 71.2%
- viability, T/C (second compound 10 µM, first compound 0.949 µM): 61.4%
- viability, T/C (second compound 10 µM, first compound 3 µM): 45.7%
